Test results from patent publication US11014934B2, “Antiseptic drug” (AO “TATKHIMFARMPREPARATY”, priority 2017, dated 2021).
Read-outs that look alike come from different tables or passages of the source.

Legend:
[1] = test system: Bovine rhinotracheitis virus (herpes virus family), vaccine strain TK-A (VIEV)-V2; test: Antiviral (virulicidal) activity, cytopathogenic effect on LCE cells; type: cell-based, IBR virus; conditions: for destruction of the monolayer, drug with the virus: virus incubated with drug one hour, LCE cells 72 hours; for concentration with virulicidal effect: herpes virus type 1, infectious titer 6.0 Ig TCD50/ml
Description: The study of the antiviral activity of compound I in vitro was carried out in accordance with [D. L. Kuznetsov, A. YA. Samuylenko, V. I. Belousov Immunofermentnaya diagnostika IRT KRS. Veterinariya.—2002.—No 3.—S. 22-25. D. L. Kuznetsov, A. Y. ? Samuylenko, V. I. Belousov Enzyme-linked immunosorbent assay for cattle IBR. Veterinary medicine.—2002.—No 3.—P. 22-25].
Cells of a light cow embryo (LCE) are obtained from the Federal State Budgetary Institution “All-Russian Institute of Experimental Veterinary Medicine”, Moscow. Bovine rhinotracheitis virus (herpes virus family), vaccine strain “TK-A (VIEV)-V2” was obtained from the Federal State Budgetary Institution “All-Russian Institute of Experimental Veterinary Medicine”, Moscow.
Evaluation of the antiviral activity of compound I was carried out in an appropriate medium on LCE cells that were infected with the IBR virus belonging to the type 1 herpes virus family.
The virus was incubated in the presence of compound I in a culture medium at 37° C. for one hour at various concentrations; miramistin and benzalkonium chloride served as control preparations. After incubation of the virus with substances, it was added to the cell culture, which was then incubated at 37° C., 5% CO2 for 72 hours.
Evaluation of the cytopathogenic effect was carried out visually by the state of the cell monolayer as compared with the controls (virus without incubation with the drug, the studied drug concentrations without the virus). The virus titer was calculated using the method of Reed-Muench in the modification of Ashmarin and expressed in Ig TCD50/ml.

[2] = test system: Aspergillus fumigates RCPF F-1248/880; test: Antifungal activity, 2-fold serial dilutions in Saburo glucose broth; type: cell-based, Asp. fumigates; conditions: for MIC: Aspergillus
Description: (§1) The study of the antifungal activity of compound I in vitro was carried out in accordance with [Metodicheskiye rekomendatsii No 2. Mikologicheskoye issledovaniye ob″yektov okruzhayushchey sredy i opredeleniye protivogribkovoy aktivnosti razlichnykh veshchestv.—GOU DPO SPbMAPO NII meditsinskoy mikologii im. P. N. Kashkina, GBOU VPO SZGMU im. I. I. Mechnikova Minzdrava. SPb.: Izd. Dom SPbMAPO.—2008.—S. 16. Methodological recommendations No 2. Mycological examination of environmental objects and determination of antifungal activity of various substances.—State Educational Institution of St. Petersburg Medical Academy of Postgraduate Education with Scientific Research Institute of Medical Mycology named after P. N. Kashkin, State Educational Institution of Higher Professional Education North-West State Medical University named after I. I. Mechnikov, Ministry of Health. St. Petersburg.:: Publishing House SPbMAPO.—2008.—P. 16].
(§2) The study of the antifungal activity of substances in vitro was carried out in a liquid nutrient medium (Saburo glucose broth) in biological tubes by the method of 2-fold serial dilutions. In test tubes, three parallel series of dilutions of the test substance were prepared in the following way.
Saburo's liquid broth was sterilely poured in 3 ml into each tube; 4.5 ml was poured into the first tube of the row. A total of 14 tubes were used in a row; of which the last was a control one. […] The growth of cultures was initially assessed visually, comparing the growth of microorganisms in the presence of test compounds with the growth of culture without them. […] The first lowest concentration of the substance (from a series of consecutive dilutions), where the growth of fungi was suppressed or not visually determined, was considered the minimum inhibitory concentration (MIC).
(§3) For the preparation of inoculum, were respectively used pure (2-5) days cultures of yeast and mycelial fungi, grown on Saburo's dense nutrient broth. […] The inoculum was used within 15 minutes after preparation; the purity of the fungal strains was monitored before each experiment. […]

[3] = test system: Candida albicans RCPF Y-401/NCTC-885-653; test: as above; type: cell-based, C. albicans; conditions: for MIC: Candida albicans
Description: as §1, §2
Saburo's liquid broth was sterilely poured in 3 ml into each tube; 4.5 ml was poured into the first tube of the row. A total of 14 tubes were used in a row; of which the last was a control one. 400 mg of the test substance was taken as a standard sample and dissolved in 10 ml of distilled water. Thus, the initial dilution contained the test substance at a concentration of 40000 ug/ml. Then 0.5 ml of this dilution was introduced into the first test tube of the series (with 4.5 ml of medium), thereby diluting the concentration of the substance by another 10 times. Therefore, the first tube of the series contained 4000 μg/ml of the test substance. Then, 3 ml of the solution was taken from the first tube and transferred to the second tube, thoroughly purged, then 3 ml of the solution were taken again from the second tube and transferred to the third tube, etc.; from the penultimate tube, 3 ml was poured. […] The growth of cultures was initially assessed visually, comparing the growth of microorganisms in the presence of test compounds with the growth of culture without them. […] The first lowest concentration of the substance (from a series of consecutive dilutions), where the growth of fungi was suppressed or not visually determined, was considered the minimum inhibitory concentration (MIC).
as §3

[4] = C. albicans RCPF Y-401/NCTC-885-653

CCCCCCCCCCCCCC(=O)NCCC[N+](C)(C)Cc1ccccc1.O.[Cl-] [Miramistin, benzyldimethyl [3-(myristoylamino)propyl]-ammonium chloride monohydrate]
destruction of the monolayer, drug with the virus ([1]; 100 μg/ml): +++ (+++ - 90-100% destruction of the monolayer) | destruction of the monolayer, drug with the virus ([1]; 150 μg/ml): − (−0-10% destruction of the monolayer) | destruction of the monolayer, drug with the virus ([1]; 200 μg/ml): − (−0-10% destruction of the monolayer) | concentration with virulicidal effect [1]: 150 µg/mL | MIC ([2]; RCPFF1248/880, read-out: The value of the MIC): 31.2 µg/mL | The value of the MIC [3, 4]: inactive | MIC ([3]; NCTC885, read-out: The value of the MIC): > 500 µg/mL

alkyldimethyl(phenylmethyl) ammonium chloride [Benzalconium chloride]
destruction of the monolayer, drug with the virus ([1]; 150 μg/ml): ++ (++ - −40-70% destruction of the monolayer) | destruction of the monolayer, drug with the virus ([1]; 200 μg/ml): − (−0-10% destruction of the monolayer) | The value of the MIC ([2]; Asp. fumigates RCPF F-l248/880): 15.6 µg/mL | The value of the MIC [3, 4]: 7.8 µg/mL

CCCCCCCCCCCC[N+](C)(C)Cc1cnc(C[N+](C)(C)CCCCCCCCCCCC)c2c1COC(CC)O2 (stereo not shown) [Compound I, 5,8-(Bis(methylene (N, N-dimethyl-N-dodecylammonium))-2-ethyl-4H-[1,3]dioxino [4,5-c]pyridiniumdichloride]
destruction of the monolayer, drug with the virus ([1]; 150 μg/ml): ++ (++ - −40-70% destruction of the monolayer) | destruction of the monolayer, drug with the virus ([1]; 200 μg/ml): − (−0-10% destruction of the monolayer) | concentration with virulicidal effect [1]: 200 µg/mL | MIC ([2]; RCPFF1248/880, Asp. fumigates RCPF F-l248/880, read-out: The value of the MIC): 62.5 µg/mL | MIC ([3]; NCTC885, C. albicans RCPF Y-401/NCTC-885-653, read-out: The value of the MIC): 62.5 µg/mL
